Data: patent US9890166B2, “Imidazopyrrolidine derivatives and their use in the treatment of disease” (NOVARTIS AG, priority 2013, dated 2018)

Key:
BRD2 (His-Brd2(60-472)) = BRD2 (His-Brd2(60-472)) (Homo sapiens (Human), UniProt P25440); experiment: TR-FRET in-vitro binding assay for BRD2; details: single determination or n ≧ 2 independent determinations, read-out: Biochemical IC50 BRD2
Method in brief: (§1)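 In this TR-FRET format, each compound was tested as an 8-point dilution series, single point per concentration, dispensed from 90% DMSO solution. Incubation lasted 35 minutes at 30° C.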

[1] = target: CREBBP bromodomain (His-CREBBP(1081-1197)) (Homo sapiens (Human), UniProt Q92793); experiment: AlphaScreen in-vitro binding assay for CREBBP; details: single determination or n ≧ 2 independent determinations, read-out: Biochemical IC50 CREBBP
Method in brief: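 Detection used nickel-chelate acceptor plus streptavidin donor AlphaScreen beads, 1 h room temperature. Percent inhibition fitted by non-linear regression to IC50.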

MV-4-11 cells = experiment: Cell growth inhibition assay (CellTiter-Glo), MV-4-11; details: for GI50: Homo sapiens, MV4-11, read-out: MV-4-11 GI50; for MV-4-11 TGI: MV-4-11 cells, total growth inhibition, CellTiter-Glo;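 for all read-outs here: cellular ATP luminescence after 4 days, 3-fold dilution series from 10 µM top dose, vehicle (0.1% DMSO) set to 100%, cell-free medium set to −100%, day 0 corrected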
K-562 cells = experiment: Cell growth inhibition assay (CellTiter-Glo), K-562; details: for GI50: Homo sapiens, K562, read-out: K-562 GI50; for K-562 TGI: K-562 cells, total growth inhibition, CellTiter-Glo;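 for all read-outs here: cellular ATP measured by luminescence after 4 days of exposure, 3-fold dilution series from 10 µM, DMSO vehicle-treated cells define 100%, cell-free medium wells −100%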
BRD4 (His-Brd4(44-477)) = BRD4 (His-Brd4(44-477)) (Homo sapiens (Human), UniProt O60885); experiment: TR-FRET in-vitro binding assay for BRD4; details: single determination or n ≧ 2 independent determinations, read-out: Biochemical IC50 BRD4
Method in brief: as §1

[2] = target: nuclear BRD4-NUT foci in HCC2494 NUT midline carcinoma cells (Homo sapiens, UniProt O60885); experiment: cell-based
THP-1 cells = experiment: Cell growth inhibition assay (CellTiter-Glo), THP-1; details: for GI50: Homo sapiens, THP-1, read-out: THP-1 GI50; for THP-1 TGI: THP-1 cells, total growth inhibition, CellTiter-Glo;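 for all read-outs here: viability read as cellular ATP luminescence after 4 days, 3-fold dilution series from 10 µM, DMSO vehicle-treated cells taken as 100%, cell-free medium wells as −100%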
BRD3 (His-Brd3(20-477)) = BRD3 (His-Brd3(20-477)) (Homo sapiens (Human), UniProt Q15059); experiment: TR-FRET in-vitro binding assay for BRD3; details: single determination or n ≧ 2 independent determinations, read-out: Biochemical IC50 BRD3
Method in brief: as §1

Sequence of BRD3 (His-Brd3(20-477)) (Q15059 20-477): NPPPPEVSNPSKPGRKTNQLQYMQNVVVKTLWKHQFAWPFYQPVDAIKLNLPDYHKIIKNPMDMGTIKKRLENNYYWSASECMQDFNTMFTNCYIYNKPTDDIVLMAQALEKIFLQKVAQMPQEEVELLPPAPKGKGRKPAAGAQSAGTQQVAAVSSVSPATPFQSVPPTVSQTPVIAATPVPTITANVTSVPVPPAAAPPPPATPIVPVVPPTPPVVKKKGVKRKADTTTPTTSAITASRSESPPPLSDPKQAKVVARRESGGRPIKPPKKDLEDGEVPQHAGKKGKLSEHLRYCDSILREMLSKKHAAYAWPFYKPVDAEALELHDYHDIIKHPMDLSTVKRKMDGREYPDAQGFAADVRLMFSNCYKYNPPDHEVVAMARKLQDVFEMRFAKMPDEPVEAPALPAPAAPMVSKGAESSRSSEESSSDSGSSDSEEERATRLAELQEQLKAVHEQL
Sequence of BRD2 (His-Brd2(60-472)) (P25440 60-472): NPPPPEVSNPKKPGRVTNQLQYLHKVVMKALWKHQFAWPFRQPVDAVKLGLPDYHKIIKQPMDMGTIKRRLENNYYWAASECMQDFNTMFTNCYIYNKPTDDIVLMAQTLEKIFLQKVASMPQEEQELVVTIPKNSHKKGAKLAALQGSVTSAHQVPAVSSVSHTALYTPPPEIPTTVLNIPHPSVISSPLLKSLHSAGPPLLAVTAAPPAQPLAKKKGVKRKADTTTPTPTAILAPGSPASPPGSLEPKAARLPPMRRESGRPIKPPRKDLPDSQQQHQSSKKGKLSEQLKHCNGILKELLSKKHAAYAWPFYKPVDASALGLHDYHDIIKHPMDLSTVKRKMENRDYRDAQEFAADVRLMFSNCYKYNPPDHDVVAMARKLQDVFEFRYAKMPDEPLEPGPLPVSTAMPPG
Sequence of CREBBP bromodomain (His-CREBBP(1081-1197)) (Q92793 1081-1197): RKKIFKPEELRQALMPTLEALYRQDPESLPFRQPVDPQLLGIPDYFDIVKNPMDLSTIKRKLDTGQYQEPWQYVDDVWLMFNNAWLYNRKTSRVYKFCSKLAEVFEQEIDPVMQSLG

Structure (SMILES)	IC50 (BRD2 (His-Brd2(60-472)))	IC50 [1]	GI50 (MV-4-11 cells)	GI50 (K-562 cells)	IC50 (BRD4 (His-Brd4(44-477)))	IC50 [2]	GI50 (THP-1 cells)	IC50 (BRD3 (His-Brd3(20-477)))	MV-4-11 TGI (MV-4-11 cells)	K-562 TGI (K-562 cells)	THP-1 TGI (THP-1 cells)
Cc1cc(N2C(=O)c3nc(C)n(C(C)C)c3C2c2ccc(Cl)cc2)cc2c1nnn2C (racemic) [Example 2, 6-(4-chlorophenyl)-5-(3,7-dimethyl-3H-benzo[d][1,2,3]triazol-5-yl)-1-isopropyl-2-methyl-5,6-dihydropyrrolo[3,4-d]imidazol-4(1H)-one]	33 nM	8600 nM	13.8 nM	95.9 nM	20 nM	14.5 nM	23.4 nM	15 nM	28.65 nM	>10000 nM	40.95 nM
Cc1cc(N2C(=O)c3c(nc(C)n3C(C)C)C2c2ccc(Cl)cc2)cc2c1nnn2C (racemic) [Example 3, 6-(4-chlorophenyl)-5-(3,7-dimethyl-3H-benzo[d][1,2,3]triazol-5-yl)-3-isopropyl-2-methyl-5,6-dihydropyrrolo[3,4-d]imidazol-4(3H)-one]	27 nM	2600 nM	8.19 nM	55.1 nM	15 nM	12.3 nM	13.7 nM	12 nM	14.45 nM	>10000 nM	27.55 nM
Cc1cc(N2C(=O)c3nc(C4CC4)n(C(C)C)c3C2c2ccc(Cl)cc2)cn2c(C)nnc12 (racemic) [Example 13, 6-(4-chlorophenyl)-2-cyclopropyl-5-(3,8-dimethyl-[1,2,4]triazolo[4,3-a]pyridin-6-yl)-1-isopropyl-5,6-dihydropyrrolo[3,4-d]imidazol-4(1H)-one]	41 nM	4500 nM	11.3 nM	114 nM	37 nM	16.1 nM	26.1 nM	39 nM	27.15 nM	>10000 nM	59.45 nM
COc1ccc(-c2nc3c([nH]2)C(c2ccc(Cl)cc2)N(c2cc(C)c(=O)n(C)c2)C3=O)cn1 (stereo not shown) [Example 4, 6-(4-chlorophenyl)-5-(1,5-dimethyl-6-oxo-1,6-dihydropyridin-3-yl)-2-(6-methoxypyridin-3-yl)-5,6-dihydropyrrolo[3,4-d]imidazol-4(1H)-one]	68 nM	1400 nM	69.5 nM	254 nM	64 nM	74.7 nM	110 nM	68 nM	116 nM	>10000 nM	207 nM
COc1ccc(-c2nc3c([nH]2)[C@@H](c2ccc(Cl)cc2)N(c2cc(C)c(=O)n(C)c2)C3=O)cn1 [Example 5, (R)-6-(4-chlorophenyl)-5-(1,5-dimethyl-6-oxo-1,6-dihydropyridin-3-yl)-2-(6-methoxypyridin-3-yl)-5,6-dihydropyrrolo[3,4-d]imidazol-4(1H)-one]	32 nM	560 nM	37.1 nM	221 nM	30 nM	67 nM	60 nM	38 nM	73.9 nM	>10000 nM	106 nM
COc1ccc(-c2nc3c(n2C)C(=O)N(c2cc(C)c(=O)n(C)c2)C3c2ccc(Cl)cc2)cn1 (stereo not shown) [Example 6, 6-(4-chlorophenyl)-5-(1,5-dimethyl-6-oxo-1,6-dihydropyridin-3-yl)-2-(6-methoxypyridin-3-yl)-3-methyl-5,6-dihydropyrrolo[3,4-d]imidazol-4(3H)-one]	88 nM	2700 nM	60.1 nM	230 nM	92 nM	86.3 nM	161 nM	88 nM	102 nM	>10000 nM	324 nM
COc1ccc(-c2nc3c(n2C)C(=O)N(c2cc(C)c(=O)n(C)c2)[C@@H]3c2ccc(Cl)cc2)cn1 [Example 7, (R)-6-(4-chlorophenyl)-5-(1,5-dimethyl-6-oxo-1,6-dihydropyridin-3-yl)-2-(6-methoxypyridin-3-yl)-3-methyl-5,6-dihydropyrrolo[3,4-d]imidazol-4(3H)-one]	60 nM	1500 nM	44.6 nM	170 nM	56 nM	73.5 nM	65.5 nM	48 nM	85 nM	>10000 nM	111 nM
CC(C)n1c(-c2cnoc2)nc2c1C(c1ccc(Cl)cc1)N(c1ccc(=O)n(C)c1)C2=O (stereo not shown) [Example 19, 6-(4-chlorophenyl)-1-isopropyl-2-(isoxazol-4-yl)-5-(1-methyl-6-oxo-1,6-dihydropyridin-3-yl)-5,6-dihydropyrrolo[3,4-d]imidazol-4(1H)-one]					220 nM	> 10000 nM					

Continued, in another order:

IC50 (BRD2 (His-Brd2(60-472)))	IC50 [1]	GI50 (MV-4-11 cells)	GI50 (K-562 cells)	IC50 (BRD4 (His-Brd4(44-477)))	IC50 [2]	GI50 (THP-1 cells)	IC50 (BRD3 (His-Brd3(20-477)))	Structure (SMILES)	MV-4-11 TGI (MV-4-11 cells)	K-562 TGI (K-562 cells)	THP-1 TGI (THP-1 cells)
19 nM	27700 nM	11.2 nM	91 nM	13 nM	7.55 nM	15.9 nM	11 nM	Cc1cc(N2C(=O)c3nc(C)n(C(C)C)c3C2c2ccc(Cl)cc2)nn2c(C)nnc12 (racemic) [Example 18, 6-(4-chlorophenyl)-5-(3,8-dimethyl-[1,2,4]triazolo[4,3-b]pyridazin-6-yl)-1-isopropyl-2-methyl-5,6-dihydropyrrolo[3,4-d]imidazol-4(1H)-one]	26.95 nM	>10000 nM	35.6 nM
140 nM		82.7 nM	861 nM	120 nM	279 nM	195 nM	96 nM	Cc1noc(C)c1-c1nc2c(n1C(C)C)C(c1ccc(Cl)cc1)N(c1cc(C)c(=O)n(C)c1)C2=O (stereo not shown) [Example 27, 6-(4-chlorophenyl)-5-(1,5-dimethyl-6-oxo-1,6-dihydropyridin-3-yl)-2-(3,5-dimethylisoxazol-4-yl)-1-isopropyl-5,6-dihydropyrrolo[3,4-d]imidazol-4(1H)-one]	142 nM	>10000 nM	433 nM
68 nM		10.3 nM	102 nM	48 nM	20.5 nM	23.4 nM	66 nM	Cc1cc(N2C(=O)c3c(nc(C)n3C3CC3)C2c2ccc(Cl)cc2)cn2c(C)nnc12 (stereo not shown) [Example 115, 6-(4-chlorophenyl)-3-cyclopropyl-5-(3,8-dimethyl-[1,2,4]triazolo[4,3-a]pyridin-6-yl)-2-methyl-5,6-dihydropyrrolo[3,4-d]imidazol-4(3H)-one]	17.7 nM	>10000 nM	58.1 nM
	34900 nM	809 nM	5290 nM		1950 nM	2140 nM		COc1ccc(-c2nc3c([nH]2)C(c2ccc(Cl)cc2)N(c2cc(OC)c4nnc(C)n4c2)C3=O)cn1 (stereo not shown) [Example 125, 6-(4-chlorophenyl)-5-(8-methoxy-3-methyl-[1,2,4]triazolo[4,3-a]pyridin-6-yl)-2-(6-methoxypyridin-3-yl)-5,6-dihydropyrrolo[3,4-d]imidazol-4(1H)-one]	1120 nM	>10000 nM	3920 nM
